From patent publication US20200071351A1, “TACCALONOLIDE MICROTUBULE STABILIZERS” (THE BOARD OF REGENTS OF THE UNIVERSITY OF TEXAS SYSTEM, priority 2016, published 2020) come the findings set out here.

For data set [1], the system named is βIII-tubulin expressing HeLa cell line (WTβIII). The experiment in a line: Inhibition of cellular proliferation, SRB assay, βIII-tubulin expressing WTβIII cell line. The data set is classed as cell-based. The following applies: for IC50: WTβIII, average of 3-4 independent experiments; for relative resistance (Rr): IC50 WTβIII divided by IC50 HeLa. Here is the method:
(§1) The HeLa cervical cancer cell line, the SK-OV-3 ovarian cancer cell line and the PC-3 prostate cancer cell line were obtained from American Type Tissue Culture Collection (Manassas, Va.) and grown in Basal Media Eagle (BME) or RPMI 1640 medium (Invitrogen; Carlsbad, Calif.) supplemented with 10% fetal bovine serum (Hyclone; Logan, Utah) and 50 μg/ml gentamicin sulfate (Invitrogen). The P-glycoprotein expressing SK-OV-3/MDR-1-6/6 cell line and the βIII-tubulin expressing WTβIII cell line have been described previously (Risinger et al., 2008).
(§2) The antiproliferative and cytotoxic effects of the taccalonolides were evaluated using the SRB assay (Skehan et al., 1990, Boyd and Paull, 1995) as previously described (Tinley et al., 2003). The concentration of drug that causes 50% inhibition of cellular proliferation (IC50) was calculated from the linear portion of the log dose response curve. The ability of the compounds to initiate cytotoxicity was also determined. […] The determination of IC50 values was performed on taccalonolide material after NMR analysis and subsequent lyophilization. Ethanol or DMSO was used as the vehicle for all cellular studies.
(§3) The ability of taccalonolides AF and AJ to inhibit the proliferation of both drug sensitive cancer cells, including ovarian cancer cells (SK-OV-3), cervical cancer cells (HeLa) and prostate cancer cells (PC-3) and drug resistant cells, including the P-glycoprotein expressing SK-OV-3 line (SK-OV-3/MDR-1-6/6) and the βIII-tubulin expressing HeLa cell line (WTβIII) was determined.
(§4) Referring to Table 3, the effect of the taccalonolides in drug resistant and sensitive cells is shown. IC50 values for inhibition of cellular proliferation for taccalonolides AF and AJ were determined in drug sensitive and drug resistant cell lines. The HeLa cell pair evaluated the effect of βIII tubulin expression on cell sensitivity and the ability of compounds to overcome drug resistance mediated by βIII tubulin expression. The SK-OV-3 cell line pair was used to evaluate the effects of the expression of P-glycoprotein (Pgp) on cell sensitivity and the ability of compounds to overcome Pgp-mediated drug resistence. The effects of the taccalonolides on the drug senstive prostate cancer cell line PC-3 are also presented. IC50 values were calculated from an average of 3-4 independent experiments, each performed in triplicate.
(Sulforhodamine B stains cellular protein and so reports cell mass.)

The subject of data set [2] is SK-OV-3 ovarian cancer cell line. The experiment in a line: Inhibition of cellular proliferation, SRB assay, SK-OV-3 cells. The data set is classed as cell-based. The following applies: average of 3-4 independent experiments. Here is the method:
as §1, §2, §3
(§5) Referring to Table 3, the effect of the taccalonolides in drug resistant and sensitive cells is shown. IC50 values for inhibition of cellular proliferation for taccalonolides AF and AJ were determined in drug sensitive and drug resistant cell lines. The HeLa cell pair evaluated the effect of βIII tubulin expression on cell sensitivity and the ability of compounds to overcome drug resistance mediated by βIII tubulin expression. […] IC50 values were calculated from an average of 3-4 independent experiments, each performed in triplicate.

Data set [3] relates to SK-OV-3/MDR-1-6/6 cell line. Briefly: Inhibition of cellular proliferation, SRB assay, P-glycoprotein expressing SK-OV-3/MDR-1-6/6 cells. The following applies: for IC50: SK-OV-3/MDR-1-6/6, average of 3-4 independent experiments; for relative resistance (Rr): IC50 SK-OV-3/MDR-1-6/6 divided by IC50 SK-OV-3. Type of data set: cell-based. Here is the method: as §1, §2, §3, §4

Data set [4] concerns MDA-MB-231-BR-Luc2 cells. Briefly: Growth of intracranially injected breast cancer cells in the brain, luciferase imaging. The data set is classed as in vivo, female athymic nude mice. As to conditions: for brain tumor photon counts, day 0: day 0, 10 second exposure; for brain tumor photon counts, day 0 / brain tumor photon counts, day 7: one mouse each, AF 2.2 mg/kg ip, paclitaxel 20 mg/kg ip on days 0 and 4; for brain tumor photon counts, day 7: day 7, 10 second exposure. Here is the method: Referring to FIG. 15, A brain-seeking clone of the MDA-MB-231 triple negative breast cancer cell line stably transfected with luciferase was injected intracranially (1×10^6 MDA-MB-231-BR-Luc2 cells in 5 μL PBS) into female athymic nude mice. […] On day 7, mice were again imaged as described above (FIGS. 15C, D). The brain tumor in the mouse treated with taccalonolide AF measured 2.2×10^3 photon counts with an exposure time of 10 seconds on day 0 but was undetectable with the same 10 second exposure time on day 7. A longer exposure time of 60 seconds gave a photon count of 2.4×10^3.

Data set [5] relates to HeLa cells. Briefly: Cell cycle distribution by flow cytometry. The following applies: 18 h, 125 nM AF, 200 nM AI, 35 nM AJ. In general terms: Flow cytometry measures light scatter and fluorescence of single cells or particles in a stream.
Data set [6] has as its system PC-3 prostate cancer cell line. The experiment in a line: Inhibition of cellular proliferation, SRB assay, PC-3 cells. Type of data set: cell-based. The following applies: average of 3-4 independent experiments. Here is the method:
as §1, §2, §3, §5

The test system of data set [7] is MDA-MB-231 human breast tumors. The experiment in a line: Antitumor activity in MDA-MB-231 breast tumor xenograft. Type of data set: in vivo, Nude mice. The following applies: 2.5 mg/kg on days 0 and 4 or 2.0 mg/kg on days 0, 3, and 7. Here is the method: The ability of taccalonolide AF to inhibit the growth of the aggressive human breast tumor MDA-MB-231 in a murine host was determined. Taccalonolide AF was administered at a dose of 2.5 mg/kg on days 0 and 4 or 2.0 mg/kg on days 0, 3, and 7.
Referring to FIG. 6, Nude mice bearing bilateral MDA-MB-231 human breast tumors were treated with 2.0 mg/kg of AF on days 0, 3 and 7, 2.5 mg/kg AF on days 0 and 4, or 10 mg/kg PTX on days 0, 2, 4 and 7 as a positive control. Tumor volume was measured using calipers and mass calculated with the formula: Tumor mass (mg)=0.5×[…]. Median tumor mass with standard error of the mean (n=10) are graphically represented. *p<0.05, **p<0.01.

Data set [8] concerns HeLa cells. Briefly: Mitotic spindle structures, indirect immunofluorescence. As to conditions: 18 h, 125 nM AF, 200 nM AI, 35 nM AJ. Type of data set: cell-based. Here is the method: Cellular microtubules in interphase and mitotic HeLa cells were visualized using indirect immunofluorescence techniques as previously described (Tinley et al., 2003). […] Representative images of interphase and mitotic cells were acquired using a Nikon Eclipse 80i fluorescence microscope and compiled using NIS Elements AR 3.0 software.
The effects of the taccalonolides on mitotic spindle structures were evaluated to test whether they caused mitotic spindle defects leading to cell cycle arrest. β-tubulin and DNA were visualized in HeLa cells by indirect immunofluorescence and DAPI staining, respectively. […] These mitotic cells contained multiple abnormal mitotic spindles, which is another common effect of microtubule stabilizing agents (FIGS. 4A-D).
The microtubule structures in mitotic cells were visualized by indirect immunofluorescence using a β-tubulin antibody.

The subject of data set [9] is HeLa cells. The experiment in a line: Inhibition of cellular proliferation, SRB assay, HeLa cells. Type of data set: cell-based. The following applies: for increase in potency as compared to the parent taccalonolide on C22-C23 epoxidation: HeLa IC50 ratio, parent/epoxide. Here is the method: The ability of the compounds to initiate cytotoxicity was also determined. […] The determination of IC50 values was performed on taccalonolide material after NMR analysis and subsequent lyophilization. Ethanol or DMSO was used as the vehicle for all cellular studies.
The antiproliferative potencies of the taccalonolides were evaluated in HeLa cells using the SRB assay.

Data set [10] has as its system purified porcine brain tubulin. Briefly: Tubulin polymerization followed turbidimetrically. The data set is classed as biochemical. The following applies: 10 μM compound, 2 mg/ml tubulin, 10% glycerol, 1 mM GTP, 37° C., OD340. Here is the method:
The ability of these new potent taccalonolides to interact directly with tubulin was assessed by incubating purified porcine brain tubulin at a concentration of 2 mg/ml in the presence of 10% glycerol and 1 mM GTP, which allows for a baseline level of tubulin polymerization that can be followed turbidimetrically (FIG. 5).
Tubulin polymerization was monitored by turbidity measurement at OD340.

Data set [11] has as its system human mammary epithelial cells. Briefly: Cytotoxicity to normal cells. The data set is classed as cell-based. The following applies: concentrations 5 to 100-fold the IC50 values in the HeLa cancer cell line.
The mark [12] stands for this setting: HeLa cells, SRB assay, read-out: IC50.
The mark [13] stands for this setting: HeLa, average of 3-4 independent experiments, read-out: IC50 for inhibition of cellular proliferation, HeLa.

Where two headings read alike, the source gives them in different places.

As for `CC(=O)O[C@H]1C(=O)[C@@]2(C)[C@H]([C@H](OC(=O)c3ccccc3)[C@]3(O)C[C@H](OC(=O)[C@H](O)[C@@H](NC(=O)c4ccccc4)c4ccccc4)C(C)=C1C3(C)C)[C@]1(OC(C)=O)CO[C@@H]1C[C@@H]2O` [Paclitaxel, paclitaxel, reference compound], the IC50 in data set [1] (Homo sapiens, HeLa) came out at 17.8 ± 1.2 nM; in data set [2] (Homo sapiens) it was 3.8 ± 0.2 nM; in [3] (Homo sapiens), 785 ± 88 nM; in [6] (Homo sapiens), 3.7 ± 0.2 nM. Further, the “brain tumor photon counts, day 0” value in data set [4] was 1.8×10^4 photon counts. Besides, the “brain tumor photon counts, day 7” value in data set [4] was 9.0×10^4 photon counts. Moreover, the “effect on mitotic progression / cell cycle distribution” value in data set [5] is on record as “mitotic arrest”.
In the case of `CC(=O)O[C@@H]1[C@H]2[C@H]3[C@H]([C@H](OC(C)=O)[C@H](OC(C)=O)[C@]2(C)[C@H]2[C@H](C)[C@H]4O[C@]45OC(=O)[C@@](C)(O)[C@]5(C)[C@@H]12)[C@]1(C)[C@H](C[C@@H]2O[C@@H]2[C@@H]1OC(C)=O)C(=O)[C@@H]3O` [Taccalonolide AF], the “antitumor activity compared to vehicle treated controls” value in data set [7] is “sufficient to observe antitumor activity”. The “antitumor activity compared to positive control 10 mg/kg paclitaxel” value in data set [7] (paclitaxel days 0, 2, 4 and 7) was “equivalent or greater than the positive control”. Further, in data set [8], the “effect on mitotic spindle structures” value is on record as “mitotic arrest of cells with multiple abnormal mitotic spindles”. Besides, the results for the “relative resistance (Rr)” value in [1] and in data set [3] were “(1.3)” and “(4.6)”, respectively. The IC50 was 30.6 ± 3.3 nM in data set [1]; 23 nM in data set [9] (setting [12]); 23.6 ± 2.1 nM in data set [9] (setting [13]); 79.4 ± 3.5 nM in [2]; 366 ± 30.6 nM in data set [3]; 128 ± 16 nM in data set [6]. Besides, in data set [9], the “increase in potency as compared to the parent taccalonolide on C22-C23 epoxidation” value turned out to be 234 fold. Moreover, the “brain tumor photon counts, day 0” value in data set [4] was 2.2×10^3 photon counts. The “brain tumor photon counts, day 7” value in data set [4] was “undetectable”. Besides, in data set [4] (day 7, 60 seconds exposure, AF 2.2 mg/kg ip on days 0 and 4), the “brain tumor photon count, day 7, longer exposure” value is 2.4×10^3 photon count. Moreover, the “rate and extent of tubulin polymerization” value in data set [10] is on record as “dramatically increased”. For the same molecule, in data set [11], the “cytotoxicity of normal cells” value was “No cytotoxicity”.
Regarding `CC(=O)O[C@H]1[C@H]2[C@H]([C@@H]3[C@@H](O)[C@@H]4[C@H]([C@H](C)[C@@H]5O[C@@]56OC(=O)[C@@](C)(O)[C@]46C)[C@@]3(C)[C@H]1OC(C)=O)[C@@H](O)C(=O)[C@H]1C[C@@H]3O[C@@H]3[C@H](OC(C)=O)[C@]21C` [Taccalonolide AJ], the “effect on mitotic spindle structures” value in data set [8] is reported as “mitotic arrest of cells with multiple abnormal mitotic spindles”. The “relative resistance (Rr)” value is on record as “(1.7)” in data set [1] and “(7.8)” in data set [3]. Further, the IC50 in [1] turned out to be 11.1 ± 0.6 nM; in data set [9] (setting [12]), 4.3 nM; in [9] (setting [13]), 6.6 ± 0.3 nM; in data set [2], 16.3 ± 0.8 nM; in data set [3], 126 ± 12.8 nM; in data set [6], 25.1 ± 4 nM. Besides, in data set [9], the “increase in potency as compared to the parent taccalonolide on C22-C23 epoxidation” value was 743 fold. In addition, in data set [10], the “rate and extent of tubulin polymerization” value is “dramatically increased”. Moreover, the “cytotoxicity of normal cells” value in [11] is given as “No cytotoxicity”.
